This is an account of results in patent US10363239B2, “Method for inhibiting growth of cancer cells” (Pain Therapeutics, Inc., priority 2013, dated 2019).

Assay [1] relates to glioblastoma cells (U-87 MG). Kind of assay: [3H]glucose uptake. In kind it is cell-based, human. As to the method: (§1) FIG. 1A through FIG. 1M illustrate the effects of various FLNA-binding compounds on glucose uptake in glioblastoma, melanoma, breast and pancreatic cancer cell lines, along with appropriate non-cancerous primary cell controls. Cells were grown in the absence or presence of 0.1-5 nM indicated compounds for 4 days. Following brief washes with PBS, cells were serum-deprived for 4 hours and then incubated in oxygenated Kreb's Ringer containing 0.1 μCi [^3H]glucose for 2 hours under constant oxygenation. The reaction was terminated by removal of the incubation medium, and cells were washed and scraped off to determine the amounts of [^3H]glucose in cells by scintillation spectrometry. […] N=5-6. […] . […] . To determine the effect of Compound C0105 on glucose utilization, the cancer and primary normal cells were plated extremely thinly (10%). Once cells attached, Compound C0105 was added at 0.1, 0.5, 1 or 5 nM in the medium twice daily (6 hours apart) for 4 days. The cells were serum-deprived (glucose deprived) for 2 hours. Cells were then rinsed with 1 ml PBS and glucose uptake was assessed by contacting the cells with [^3H]glucose (0.01 uCi/l ml) in Kreb's Ringer for 2 hours. Cells were then rinsed with 1 ml PBS 3 times, scraped off and their glucose content counted by liquid scintillation spectrophotometry.
(§2) Both glioblastoma and melanoma cells were plated extremely thinly. Once cells attached, Compound C0105 was added at 0.1, 0.5, 1 and 5 nM, whereas the other compounds were present at 1 and 5 nM in the medium twice daily (6 hours apart) for 4 days. The cells were serum-deprived (glucose deprived) for 2 hours. Cells were then rinsed with 1 ml PBS and glucose uptake was assessed by contacting the cells with [3H]glucose (0.01 uCi/l ml) of Kreb's Ringer for 2 hours. Cells were then rinsed with 1 ml PBS 3 times, scraped off and their glucose contents counted by liquid scintillation spectrophotometry.

The test system of a further assay is melanoma cells (A2058). Kind of assay: [3H]glucose uptake. It counts as cell-based, human. Here is the method: as §1, §2
For the next assay, the system named is primary lung fibroblasts. Kind of assay: [3H]glucose uptake. In kind it is cell-based, human. Particulars: C0105 0.1-5 nM, other compounds 1 or 5 nM; 4 days. As to the method: as §1, §2
For assay [2], the system named is small-cell lung carcinoma cells. Kind of assay: Cell proliferation by cell-cycling markers Ki67 and PCNA (Western blots). As to conditions: 0.1-5 nM; 4 days. In kind it is cell-based, human. Background: In western blotting, separated proteins are transferred to a membrane and probed.
In assay [3] the test system is breast cancer HTB-22 cells. The assay is described as above. Particulars: 0.1-5 nM; 4 days. In kind it is cell-based, human. Here is the method: The effect of contact with Compound C0105 on cell proliferation was determined by the levels of cell-cycling markers: Ki67 and PCNA using Western blots in HTB-22 and control human mammary epithelial cells (HMECs). Cells treated with vehicle and 0.1-5 nM Compound C0105 for 4 days were collected, washed and solubilized. The resultant cell lysates were size-fractionated on SDS-PAGE and Western blotting to determine the levels of Ki67, PCNA and actin (loading control). The protein bands were quantified using densitometric scanning.
The effect of C0105 on cell proliferation was determined by the levels of cell-cycling markers Ki67 and PCNA using Western blots in HTB-22 and control HMECs. Cells contacted with vehicle and 0.1-5 nM Compound C0105 for 4 days were collected, washed and solubilized. […] The protein bands were quantified using densitometric scanning. […]
To study the effect of Compound C0105 on PI3K activity, the cancer and primary normal cells were cultured to approximately 60-70% confluency, serum deprived for 4 hours, briefly washed with PBS and treated with vehicle or 0.1, 0.5, 1 or 5 nM Compound C0105 for 24 hours with in 0.1% FBS-containing culture medium. […] The cell pellets were sonicated in ice-cold immunoprecipitation buffer and protein concentrations measured by the Bradford method. […]

Assay [4] has as its system primary neuroendocrine tumor cells. Kind of assay: Cell proliferation by Ki67 and PCNA (Western blotting). It counts as cell-based, human. Particulars: 1 nM; 4 days.
For a further assay, the system named is MiaPaCa2 cell implants. Kind of assay: Xenograft survival study. In kind it is in vivo, Nu/Nu mice. As to conditions: 100 mg/kg. Here is the method: FIGS. 34A and 34B illustrate Kaplan-Meier survival curves (FIG. 34A) and averaged tumor volumes (FIG. 34B) in a xenograft study in which MiaPaCa2 cells were implanted in Nu/Nu mice. […] FIG. 34B illustrates average tumor volumes (mm3) in mice treated with vehicle alone (black diamonds), gemcitabine (open squares), Compound C0105 at 10 mg/kg (black triangles) and Compound C0105 at 100 mg/kg (open diamonds).
Mice were monitored individually and the treatment effect was compared to each mouse's own original tumor on the treatment day 0. The endpoint of the study was a tumor volume of 1500 mm^3 or 45 days, whichever comes first. The animals were euthanized when the endpoint was reached. Responders were followed longer (survival study). The Table below illustrates the drug treatment administered to the mice.
A third xenograft study was designed to measure survival rather than tumor volume at a designated time point.

[5] abbreviates: C0105 0.1-5 nM, other compounds 1 and 5 nM, twice daily for 4 days.

For `CN1CCC2(CC1)NCC(=O)N2Cc1ccccc1` [Compound C0105], the “Reduction of glucose uptake” value in assay [1] (0.1 nM, 4 days) was determined as 25%. In addition, in assay [1] (1 nM, 4 days), the “Inhibition of glucose uptake, maximal effect” value amounted to 50%. Further, the EC50 (usually the concentration needed to bring the measured effect to its halfway point) in assay [1] (4 days, read-out: EC50, inhibition of glucose uptake) was around 0.1 nM. In addition, the Glucose utilization result (in assay [1] (setting [5]); with melanoma cells (A2058) (setting [5])) was “decreased the elevated glucose utilization” each time. In the assay with melanoma cells (A2058) (0.1-5 nM, not dose-dependent), the “Inhibition of glucose uptake” value was “about 25%”. In the assay with primary lung fibroblasts, the “Glucose uptake / glucose content” value is listed as “not changed”. The “Cell proliferation (Ki67 and PCNA levels)” value is “reduces cell proliferation” in assay [2], “reduces cell proliferation” in assay [3] and “Inhibits Proliferation” in assay [4]. The “Tumors shrunk to undetectable” value in the assay on MiaPaCa2 cell implants is on record as “completely shrunk tumors to being undetectable in three high-dose (100 mg/kg) mice”. In the assay with MiaPaCa2 cell implants (mouse found dead at 30 days), the “Tumor shrinkage compared to mice receiving vehicle” value is listed as “more than 90%”.
